Values of other authors as cited in patent US20110028397A1, “Use of Urokinase Type Plasminogen Activator Inhibitors for the Treatment of Corneal Disorders” (priority 2007, published 2011).

How the values were obtained:
[1] = in vivo, sc
[2] = eye drop prepared freshly daily, stored in refrigerator between uses
thrombin = thrombin (Homo sapiens, UniProt P00734)

Row | biological availability [1] | inhibitory activity on storage [2] | Ki (thrombin) | Compound | anticoagulant activity (in vitro and in vivo) | antithrombotic effect in in vivo studies (in vivo)
1 | 87% | – | – | iBuOCO-D-Ser-Ala-Arg-aldehyde | – | –
2 | – | retains its inhibitory activity | 75 nM | N=C(N)NCCC[C@@H](C=O)NC(=O)[C@@H]1CCCN1C(=O)[C@H](N)Cc1ccccc1 [Ald-1, D-Phe-Pro-Arg-aldehyde] | significant anticoagulant activity | effective antithrombotic drug
